Experiments:
[1] = Ratio of (Ka) of octopamine to that of compound; assay type: ADME
[2] = tested on: Lampyridae; experiment: V max is determined from stimulation of firefly light organ adenylate cyclase; assay type: functional
[3] = Kinetic constant (Ka) of compound against octopamine receptor; assay type: ADME
[4] = tested on: Lampyridae; experiment: Vmax is determined from stimulation of firefly light organ adenylate cyclase; assay type: functional

SMILES | Ratio [1] | Vmax [2] | further results
CCc1c(Br)c(N)c(Br)c(CC)c1N=C1NCCN1 | 15 |  | 
[3H]c1c(CC)c(N=C2NCCN2)c(CC)c([3H])c1N=[N+]=[N-] | 86 |  | 
CN(CCCl)c1cc(Cl)c(NC2=NCCN2)c(Cl)c1 |  | 5% | 
CCc1cc(N=[N+]=[N-])cc(CC)c1N=C1NCCN1 | 70 |  | Ka [3]: 350 nM
CCc1cc(N)cc(CC)c1NC1=NCCN1 |  | 82% | 
NCC(O)c1ccc(O)cc1 (stereo not given) [OCTOPAMINE] | 1 | 100% | 
CCc1cccc(CC)c1NC1=NCCN1 | 12 |  | Vmax [4]: 100%
CCc1cc(N=[N+]=[N-])cc(CC)c1NC1=NCCN1 |  | 100% | Vmax ([2]; tested as the 3H-labelled form): 100%
CCc1cc(N)cc(CC)c1N=C1NCCN1 | 1.3 |  | 
CN(CCCl)c1cc(Cl)c(N=C2NCCN2)c(Cl)c1 | 6 |  | 
CCc1c(Br)c(N)c(Br)c(CC)c1NC1=NCCN1 |  | 24% | 

From ChEMBL document CHEMBL1124635, “A probe for octopamine receptors: synthesis of 2-[(4-azido-2,6-diethylphenyl)imino]imidazolidine and its tritiated derivative, a potent reversible-irreversible activator of octopamine-sensitive adenylate cyclase” (J Med Chem, 1989)
